Test results published in the Kinase Knowledgebase extract (Sharma et al. 2016).
pIC50: −log10 of the molar value.

molecular target: MAPK14 (human) (UniProt Q16539); test: Inhibition of MAPK14 Kinase Activity; details: THP.1 monocytic
Sequence (Q16539 whole entry, looked up): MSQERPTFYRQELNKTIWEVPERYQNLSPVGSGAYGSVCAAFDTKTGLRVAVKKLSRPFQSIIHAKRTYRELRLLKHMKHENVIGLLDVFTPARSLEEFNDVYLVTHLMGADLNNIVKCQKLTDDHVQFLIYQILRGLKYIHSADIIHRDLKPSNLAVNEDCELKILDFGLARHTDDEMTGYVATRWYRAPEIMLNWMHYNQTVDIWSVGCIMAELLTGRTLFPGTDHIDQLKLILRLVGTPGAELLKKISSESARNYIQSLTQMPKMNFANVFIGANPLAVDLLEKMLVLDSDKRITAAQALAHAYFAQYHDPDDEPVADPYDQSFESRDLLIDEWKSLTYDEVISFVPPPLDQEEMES

| SMILES | pIC50 |
| --- | --- |
| O=c1c(Br)c(OCc2ccccc2)ccn1CC1CCNCC1 | 4.00 to 4.60 |
| Cc1ccc(CO)cc1-n1c(C)cc(OCc2ccc(F)cc2F)c(Br)c1=O | > 6.00 |
| Cc1ccc(C(N)=O)cc1-n1c(C)cc(OCc2ccc(F)cc2F)c(Cl)c1=O | > 6.00 |
| Cc1cnc(Cn2c(C)cc(OCc3ccc(F)cc3F)c(Br)c2=O)cn1 | > 6.00 |

Further lines, results first:

| pIC50 | SMILES |
| --- | --- |
| > 6.00 | Cc1cc(OCc2ccc(F)cc2F)c(Br)c(=O)n1-c1c(F)cc(N(C)CCO)cc1F |
| 4.60 to 6.00 | CCOC(=O)CCn1ccc(OCc2ccccc2)c(Br)c1=O |
| > 6.00 | Cc1cc(OCc2ccc(F)cc2F)c(Br)c(=O)n1Cc1ccc(S(=O)(=O)N(C)C)cc1 |
| 4.60 to 6.00 | Cc1ccc(COc2ccn(Cc3ccccc3)c(=O)c2Br)cc1 |
| < 4.00 | O=c1cc(OCc2ccccc2)ccn1Cc1ccc(Br)cc1 |
